Test results published in patent US5081031A, “Synthetic polypeptide with type IV collagen activity” (Regents of the University of Minnesota, priority 1989, dated 1992).
Entries after “also recorded” stand apart in the source; their conditions may differ. Each block holds one substance with its values, some of them ahead of it.

Tests used:
[1] = biological target: T1, binding of heparin to peptide Hep-II (Homo sapiens, UniProt P08572); assay: Heparin/peptide interaction specificity: competition of 3H-heparin binding to coated peptide Hep-II by glycosaminoglycans; settings: Hep-II coated from 500 μg/ml; 3H-heparin 50,000 cpm per well; 2 h 37° C.
T1 construct: made in house; host or cells: chemical solid-phase (Merrifield) synthesis, no expression host
Procedure: To check the specificity of the interaction between heparin and peptide Hep-II or whether the heparin structure was also critical to this interaction, heparin along with other sulfated glucosaminoglycans, dextran and chondroitin sulfate were used in competition experiments. A standard amount of 50 μg of a solution containing 500 μg/ml of peptide Hep-II was coated on 96-well plates as described above. Wells were treated for two hours with 2 mg/ml BSA in wash buffer. Then, a final volume of 50 μl was added to each well, containing a standard amount of […] (50,000 cpm per well) and various amounts of non-radioactive heparin, dextran or chondroitin sulfate. After incubating for two hours at 37° C., the wells were washed and radioactivity was counted as described above in Example 1.

[2] = Heparin binding to plastic plates coated with peptide (3H-heparin direct binding)
Procedure: The ability of the synthesized peptide Hep-II to interact with heparin when coated on 96-well plastic plates was evaluated. Stock solutions of peptide Hep-II at a concentration of 500 μg/ml were prepared in phosphate-buffered saline containing 0.02% sodium azide. Fifty μl from each concentration was coated on the 96-well plates and left to dry overnight at 28° C. Then, wells were treated for two hours with […] of 2 mg/ml BSA and 6 mM phosphate, 10 mM NaCl, 68 μM CaCl2, pH 6.8 (wash buffer) in order to minimize non-specific binding. Next 50 μl of ^3 H-heparin (10 μg/ml) was added at increasing concentrations (0 to 1400 ng/well) for two hours at 37° C. The wells were then washed three times with wash buffer containing 0.05% Triton X-100 and finally they were incubated for thirty minutes at 60° C. with 200 μl of 0.5 N NaOH and 1% SDS. The amount of ^3 H-heparin bound at each concentration was quantitated with a Beckman LS-3801 liquid scintillation counter. […] Comparison with data obtained in the past using exactly the same methodology indicate that peptide Hep-II is at least 10 times stronger than peptide Hep-I (see FIG. 3B) and about 100 times stronger than type IV collagen, when used in the same coating concentrations.

[3] = test system: bovine aortic endothelial cells; assay: Direct adhesion of endothelial cells to peptide-coated plastic; assay type: cell-based; settings: 35S-labeled cells, 120 min. at 37° C.; increasing coating concentrations
Procedure: Bovine aortic endothelial cells were isolated according to the following protocol. Aortas were obtained from a local slaughterhouse, washed in cold phosphate buffered saline (PBS) (136 mM NaCl, 2.6 mM KCl, 15.2 mM Na2 HPO4, pH 7.2) and processed within 2 hours. Crude collagenase (CLS III, 125-145 units per mg dry weight, Cooper Biomedical) was used at 2 mg/ml in Dulbecco's modified Eagle's medium (DMEM) (GIBCO). The vessel was clamped at the distal end, filled with the collagenase-PBS solution and digestion was carried out for 10 minutes. The lumenal contents were harvested, followed by the addition of fresh collagenase for two additional 10-minute periods. The enzyme-cell suspensions were added to an equal volume of DMEM containing 10% fetal bovine serum (FBS) to inhibit the enzyme and spun in a centrifuge at 400× g for 10 minutes. The resulting cell pellet was resuspended in DMEM containing 10% FBS, 100 units/ml of penicillin G, 100 μg/ml of streptomycin and 100 μg/ml of crude fibroblast growth factor. Cells are cultured in 75 cm^2 flasks in a humidified 5% CO2 atmosphere at 37° C. Cultures were fed twice a week with the same medium and cells were used in assays when approximately 75% confluent. […] At the end of the incubation period the wells were washed, bound radioactivity was solubilized by 1% SDS-0.5 N NaOH and quantitated in a Beckman scintillation counter. […]

endothelial cells [4] = assay: Direct binding of 125I-labeled peptide Hep-II to cell surfaces; set-up: species or system bovine; settings: about 5,000 cells, 15 min. at 4° C., increasing concentrations
Procedure: Endothelial cells were grown in culture as described in example 4 (supra). Cells used for this type of experiment were not labeled with radioactivity. Unlabeled cells were harvested by trypsinization (supra) on the day of the experiment. About 5,000 cells were mixed with 50 μl of a given concentration of peptide Hep-II in solution. Increasing concentrations of peptide Hep-II were used. The cells were incubated with the iodinated peptide for 15 min. at 4° C. and they were then pelleted by centrifugation. The cells were then resuspended and washed 3 times with DMEM containing 2 mg/ml BSA and 50 mM Hepes. Following the washes, the cells were pelleted for a final time in plastic tubes, the supernatant was decanted and the radioactivity of the pellet was quantitated in a Beckman scintillation counter. The binding of peptide Hep-II to endothelial cells is saturable (FIG. 8)----an indication of specificity. These experiments indicate that peptide Hep-II specifically interacts with the surfaces of endothelial cells.

[5] = test system: melanoma and endothelial cells; assay: Promotion of cell adhesion and spreading (summary statements); assay type: cell-based; settings: many cell types, including melanoma and endothelial cells
endothelial cells [6] = assay: Inhibition of the binding of 125I-labeled peptide Hep-II to the cell surface by excess unlabeled peptide; set-up: species or system bovine; settings: unlabeled peptide up to 500-fold excess; 15 min. at 4° C.
Procedure: Endothelial cells were grown in culture as discussed in examples 4 and 5A (supra). On the day of the experiment, the cells were harvested by trypsinization (supra) and were co-incubated with 50 μl of peptide Hep-II. 50 μl a constant amount of ^125 I-labeled peptide Hep-II was mixed with increasing concentrations of unlabeled peptide Hep-II or a control peptide (maximal excess of unlabeled peptide: 500-fold over radiolabeled Hep-II). 50 μl of each concentration of unlabeled peptide which was mixed with radiolabeled Hep-II were then added to cells in suspension (5,000 cells per concentration of peptide). The cells were incubated with the mixture of unlabeled-radiolabeled peptide for 15 min. at 4° C. and they were then pelleted. The cells were subsequently washed and bound radioactivity was quantitated as described in example 4. […] These experiments provide confirmation that a specific interaction occur between endothelial-cell surfaces and peptide Hep-II.

[7] = test system: binding of heparin to type IV collagen; assay: Inhibition of heparin binding to type IV collagen coated on plastic by peptide in solution; settings: peptide in solution 0.5 mg/ml to 5 μg/ml; 3H-heparin 500 ng per well; type IV collagen coated at 60 μg/ml
Procedure: Peptide Hep-II in solution (and not absorbed to plastic), was screened for the ability to inhibit the binding of heparin to intact, native type IV collagen coated on plastic. This experimental approach avoids problems due to differential coating of peptides in heparin binding assays. Type IV collagen at 60 μg/ml in PBS was coated on 96-well plates, using 50 μl per well and dried overnight at 28° C. The wells were then treated for two hours with 2 mg/ml BSA in wash buffer (described above in Example 1). Peptide Hep-II at various dilutions ranging from 0.5 mg/ml to 5 μg/ml in PBS and CHAPS (cholamido-propyl-dimethyl-ammonio-propane-sulfonate) (a detergent used to avoid non-specific sticking) was co-incubated with a standard amount of ^3 H-heparin (500 ng per well […] final concentration) for two hours at 37° C. and the mixture was then transferred to the […] coated plate (50 μl ) and allowed to incubate for another two hours at 37° C. The wells were then washed and radioactivity was counted as described above. […] Peptide Hep-I is also shown in comparison.

[8] = test system: melanoma and endothelial cells; settings: reported from U.S. Pat. No. 4,876,332; cited from earlier work
[9] = reported from U.S. Pat. No. 4,876,332; cited from earlier work

Substance: chondroitin sulfate
- competition for the binding of tritiated heparin to peptide Hep-II [1]: cannot mimic this effect except at extremely high concentrations

Substance: dextran
- competition for the binding of tritiated heparin to peptide Hep-II [1]: substantially more dextran is needed to achieve similar levels of competition

Substance: heparin
- competition for the binding of tritiated heparin to peptide Hep-II [1]: able to compete for the binding of tritiated heparin to peptide Hep-II at very low concentrations

- heparin binding strength relative to type IV collagen ([2]; same coating concentrations, same methodology): about 100 times
Substance: leu-ala-gly-ser-cys-leu-ala-arg-phe-ser-thr-met (LAGSCLARFSTM) [Hep-II, type IV collagen residues 49-60 from the carboxyl-terminus of the α2 chain of the NCl domain]
- heparin binding to peptide coated on plastic ([2]; peptide coated on 96-well plates from 500 μg/ml stock, 3H-heparin 0 to 1400 ng/well, 2 h 37° C.): extremely potent promoter of heparin-binding; also recorded: very potent binder of heparin
- adhesion of endothelial cells to coated substrate [3]: promotes substantial adhesion of endothelial cells even at very low plating concentrations
- binding of 125I-labeled peptide to endothelial cells (endothelial cells [4]): saturable
- promotion of cell adhesion/attachment and spreading [5]: potent promoter of cell adhesion and spreading; also recorded: potent promoter of cell attachment and spreading
- competition of the binding of radiolabeled Hep-II to the surface of endothelial cells (endothelial cells [6]): can be competed only by an excess of unlabeled peptide Hep-II
- inhibition of heparin binding to type IV collagen [7]: strong inhibitor of heparin binding to type IV collagen

Substance: thr-ala-gly-ser-cys-leu-arg-lys-phe-ser-thr-met (TAGSCLRKFSTM) [Hep-I, peptide from the NCl domain of the α1(IV) chain, position 49-60 from the carboxyl terminus; U.S. Pat. No. 4,876,332]
- promotion of cell adhesion (earlier U.S. Pat. No. 4,876,332) [8]: promote cell adhesion
- heparin binding (earlier U.S. Pat. No. 4,876,332) [9]: ability to bind heparin
